Source: publication PMC5501782 (Scientific Reports, 2017)
Entries after “also recorded” stand apart in the source; their conditions may differ. Non-standard residues stand in square brackets, D forms with d. Residues, ends and D or L forms follow the SMILES beside them.

Assays:
[1] = tested on: Influenza virus (H7N3) A/Aquatic bird/Korea/W44/2005; settings: 48 h
[2] = tested on: influenza virus (A/Puerto Rico/8/34, PR8) expressing green fluorescent protein (PR8-GFP); type: cell-based
[3] = tested on: Enterovirus71; type: cell-based
[4] = tested on: MDCK cells
[5] = tested on: RSV (Hep2 cells); type: cell-based, respiratory syncytial virus
[6] = tested on: Respiratory Syncytial Virus; settings: 48 h
[7] = tested on: Influenza virus (H9N2) A/Chicken/Korea/116/2004; settings: 48 h
[8] = tested on: Vesicular stomatitis virus; settings: 48 h
[9] = tested on: Parainfluenza virus; settings: 48 h
[10] = tested on: Influenza virus (H1N1) A/Puerto Rico/8/34; settings: Influenza virus A/Puerto Rico/8/34, 48 h
[11] = tested on: Influenza virus (H5N2) A/bird/Korea/W81/2005; settings: Influenza virus A/bird/Korea/W81/2005, 48 h
[12] = tested on: Porcine epidemic diarrhea virus; settings: 48 h
[13] = tested on: Coxsakievirus; type: cell-based
[14] = tested on: VSV (293T cells); type: cell-based, vesicular stomatitis virus
[15] = tested on: Coxsackievirus (HeLa cells); type: cell-based
[16] = tested on: A/EM/Korea/W149/06 (W149, HPAI, H5N1); settings: mouse, in vivo
[17] = tested on: PR8-GFP virus; type: cell-based, influenza A virus
[18] = tested on: PR8-GFP virus; set-up: species or system influenza A virus
[19] = tested on: Herpes simplex virus; settings: 48 h
[20] = tested on: Newcastle disease virus; settings: 48 h
[21] = tested on: autophagy; settings: cited from earlier work

For `CC(C)C[C@@H](NC(=O)[C@@H](CC(C)C)NC(=O)[C@@H](CC(N)=O)NC(=O)[C@H](NC(=O)[C@@H](Cc1ccccc1)NC(=O)CNC(=O)[C@@H](Cc1ccc(O)cc1)NC(=O)CNC(=O)[C@@H](CCCNC(=N)N)NC(=O)[C@@H](CCCCN)NC(=O)[C@@H](CCCCN)NC(=O)[C@@H](CCCNC(=N)N)NC(=O)[C@@H](CCCNC(=N)N)NC(=O)[C@@H](CCC(N)=O)NC(=O)[C@@H](CCCNC(=N)N)NC(=O)[C@@H](CCCNC(=N)N)NC(=O)[C@H](N)CCCNC(=N)N)C(C)C)C(=O)N[C@H](Cc1ccccc1)C(=O)N[C@H](CC(C)C)C(=O)N[C@@H](C(=O)N[C@@H](C(=O)N[C@H](CCC(=O)O)C(=O)O)C(C)C)C(C)C` [TAT-Kα2] (H-[dR][dR][dR][dQ][dR][dR][dK][dK][dR]G[dY]G[dF][dV][dN][dL][dL][dF][dL][dV][dV][dE]-OH), the IC50 [1] was 1200 nM, the “antiviral action at attachment step” value [2] was “inhibition of virus infection” and the “antiviral action at post-attachment step” value [2] was “unable to inhibit virus infection”. For the same compound, the “antiviral action at pre-attachment step” value [2] was “antiviral activity”, the “infection of MDCK cells by peptide-treated PR8-GFP” value [2] was “strongly diminished” and the “infectivity of PR8-GFP virus” value [2] was “dramatically suppressed; also recorded: no viral infection was detected”. The “reduction in the virus titer” value [2] was “approximately 40%”, the IC50 [3] was “No” and the virucidal effect [3] was “did not show any virucidal effects”. For the same compound, the “cytotoxicity or CPE” value [4] was “no cytotoxicity or CPE”, the inhibition of infection [5] was “inhibited” and the IC50 [6] was 3.4 µM. The IC50 [7] was 700 nM, the IC50 [8] was 2900 nM and the IC50 [9] was 2400 nM. For the same compound, the IC50 [10] was 500 nM, the IC50 [11] was 800 nM and the IC50 [12] was 3.5 µM. For the same compound, the IC50 [13] was “No”, the inhibition of infection [14] was “inhibited” and the virucidal effect [15] was “did not show any virucidal effects”. The “difference in body weight percentage among groups” value [16] was “more than 20%”, the lung histopathology [16] was “intact lung tissues” and the lung virus titer [16] was “no virus was detected”. For the same compound, the survival rate [16] was 100%, the virus transmission [17] was “suppressed” and the “infectivity of virus in positive fractions in vitro” value [18] was “did not”. It also gave an IC50 [19] of 5.7 µM and an IC50 [20] of 800 nM.

In the case of EVVLFLLNVF [Kα2], the autophagy induction [21] is listed as “robust autophagy inducer”.
